Source: US9084424B2, “N-benzyl heterocyclic carboxamides” (BAYER INTELLECTUAL PROPERTY GMBH, priority 2010, dated 2015)

Tests used:
[1] = log P by HPLC on reversed-phase column (EEC Directive 79/831 Annex V.A8); format: physicochemical; settings: 0.1% aqueous formic acid and acetonitrile, linear gradient 10% to 90% acetonitrile
Outline: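 Reversed-phase C18 HPLC at 40° C with a linear 10% to 90% acetonitrile gradient against 0.1% aqueous formic acid. Log P is read from retention time by linear interpolation between successive unbranched alkan-2-ones (C3–C16) of known log P. UV spectra from 200 to 400 nm, taken at chromatographic peak maxima, give lambda-max.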

Sphaerotheca fuliginea = assay: In vivo preventive test on Sphaerotheca fuliginea (cucumber); settings: preventive spray, 500 ppm of active ingredient, evaluated 7 days after inoculation
Method: In Vivo Preventive Test on Sphaerotheca fuliginea (Cucumber)
(§1) Solvent: 49 parts by weight of N,N-dimethylformamide
(§2) Emulsifier: 1 part by weight of alkylarylpolyglycolether
(§3) To produce a suitable preparation of active compound, 1 part by weight of active compound is mixed with the stated amounts of solvent and emulsifier, and the concentrate is diluted with water to the desired concentration.
To test for preventive activity, young plants are sprayed with the preparation of active compound at the stated rate of application. After the spray coating has dried on, the plants are inoculated with an aqueous spore suspension of Sphaerotheca fuliginea. The plants are then placed in a greenhouse at approximately 23° C. and a relative atmospheric humidity of approximately 70%.
(§4) The test is evaluated 7 days after the inoculation. 0% means an efficacy which corresponds to that of the untreated control, while an efficacy of 100% means that no disease is observed.

Alternaria solani = assay: In vivo preventive test on Alternaria solani (tomato); settings: preventive spray, 500 ppm of active ingredient, evaluated 7 days after inoculation
Method: In Vivo Preventive Test on Alternaria Solani (Tomato)
as §1, §2, §3
To test for preventive activity, young plants are sprayed with the preparation of active compound at the stated rate of application. One day after this treatment, the plants are inoculated with an aqueous spore suspension of Alternaria solani. The plants remain for one day in an incubation cabinet at approximately 22° C. and a relative atmospheric humidity of 100%. Then the plants are placed in an incubation cabinet at approximately 20° C. and a relative atmospheric humidity of 96%.
The test is evaluated 7 days after the inoculation. 0% means an efficacy which corresponds to that of the untreated control while an efficacy of 100% means that no disease is observed.

Pyrenophora teres = assay: In vivo preventive test on Pyrenophora teres (barley); settings: preventive spray, 500 ppm of active ingredient, evaluated 7-9 days after inoculation
Outline: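 Young barley plants were sprayed with compound formulated in N,N-dimethylacetamide/emulsifier and diluted with water, then inoculated with P. teres spores one day later. After 48 h at 22° C., 100% humidity, plants stood in a greenhouse (~20° C., ~80% humidity); efficacy versus untreated control was scored 7-9 days post-inoculation.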

Leptosphaeria nodorum = assay: In vivo preventive test on Leptosphaeria nodorum (wheat); settings: preventive spray, 500 ppm of active ingredient, evaluated 7-9 days after inoculation
Method: In Vivo Preventive Test on Leptosphaeria nodorum (Wheat)
(§5) Solvent: 49 parts by weight of N,N-dimethylacetamide
(§6) Emulsifier: 1 part by weight of alkylaryl polyglycol ether
as §3
To test for preventive activity, young plants are sprayed with a preparation of active compound at the stated rate of application. One day after this treatment, the plants are inoculated with an aqueous spore suspension of Leptosphaeria nodorum. The plants remain for 48 hours in an incubation cabinet at 22° C. and a relative atmospheric humidity of 100%. Then the plants are placed in a greenhouse at a temperature of approximately 22° C. and a relative atmospheric humidity of approximately 90%.
The test is evaluated 7-9 days after the inoculation. 0% means an efficacy which corresponds to that of the untreated control, while an efficacy of 100% means that no disease is observed.
Under these conditions, good (at least 70%) to excellent protection (at least 95%) is observed at a dose of 500 ppm of active ingredient with the following compounds from table D: […]

Septoria tritici = assay: In vivo preventive test on Septoria tritici (wheat); settings: preventive spray, 500 ppm of active ingredient, evaluated 21 days after inoculation
Method: In Vivo Preventive Test on Septoria tritici (Wheat)
as §5, §6
(§7) To produce a suitable preparation of active compound, 1 part by weight of active compound or active compound combination is mixed with the stated amounts of solvent and emulsifier, and the concentrate is diluted with water to the desired concentration.
(§8) To test for preventive activity, young plants are sprayed with the preparation of active compound or active compound combination at the stated rate of application.
After the spray coating has been dried, the plants are sprayed with a spore suspension of Septoria tritici. The plants remain for 48 hours in an incubation cabinet at approximately 20° C. and a relative atmospheric humidity of approximately 100% and afterwards for 60 hours at approximately 15° C. in a translucent incubation cabinet at a relative atmospheric humidity of approximately 100%.
The plants are placed in the greenhouse at a temperature of approximately 15° C. and a relative atmospheric humidity of approximately 80%.
The test is evaluated 21 days after the inoculation. 0% means an efficacy which corresponds to that of the untreated control, while an efficacy of 100% means that no disease is observed.

Puccinia triticina = assay: In vivo preventive test on Puccinia triticina (wheat); settings: preventive spray, 500 ppm of active ingredient, evaluated 8 days after inoculation
Method: In Vivo Preventive Test on Puccinia triticina (Wheat)
as §5, §6, §7, §8
After the spray coating has been dried, the plants are sprayed with a spore suspension of Puccinia triticina. The plants remain for 48 hours in an incubation cabinet at approximately 20° C. and a relative atmospheric humidity of approximately 100%.
The plants are placed in the greenhouse at a temperature of approximately 20° C. and a relative atmospheric humidity of approximately 80%.
The test is evaluated 8 days after the inoculation. 0% means an efficacy which corresponds to that of the untreated control, while an efficacy of 100% means that no disease is observed.

[2] = system: Blumeria graminis f.sp. hordei; assay: In vivo preventive test on Blumeria graminis (barley); settings: preventive spray, 500 ppm of active ingredient, evaluated 7 days after inoculation
Method: In Vivo Preventive Test on Blumeria graminis (Barley)
as §5, §6, §7, §8
After the spray coating has been dried, the plants are dusted with spores of Blumeria graminis f.sp. hordei.
The plants are placed in the greenhouse at a temperature of approximately 18° C. and a relative atmospheric humidity of approximately 80% to promote the development of mildew pustules.
as §4

[3] = HPLC, reversed-phase C 18, 40° C.
[4] = HPLC on reversed-phase column (C 18), 40° C.

Row | Structure (SMILES) | logP [1, 3] | Efficacy (Sphaerotheca fuliginea) [%] | Efficacy (Alternaria solani) [%] | Efficacy (Pyrenophora teres) [%] | Efficacy (Leptosphaeria nodorum) [%] | Efficacy (Septoria tritici) [%] | logP [1, 4] | Efficacy (Puccinia triticina) [%] | Efficacy [2] [%]
1 | CC(c1ccccc1Cl)N(C)C(=S)c1c(C(F)F)nn(C)c1F (racemic) [Example 18] | 3.44 | 90 | 95 | 100 | 95 | – | – | – | –
2 | CC(NC(=O)c1c(C(F)F)nn(C)c1F)c1cccc(Cl)c1Cl (racemic) [Example 29] | 3.13 | – | 94 | 100 | – | 88 | – | – | –
3 | CC(c1ccc(Oc2ccccc2)cc1)N(C)C(=O)c1c(C(F)F)nn(C)c1F (racemic) [Example 154] | – | – | 95 | 100 | 70 | – | 3.59 | – | –
4 | Cn1nc(C(F)F)c(C(=O)N(Cc2ccc(Cl)cc2Cl)C2CCC2)c1Cl [Example 30] | 4.39 | – | – | 100 | 90 | – | – | – | –
5 | Cn1nc(C(F)F)c(C(=O)N(Cc2ccc(Cl)cc2Cl)C2CCC2)c1F [Example 31] | 4.19 | – | – | 100 | 80 | – | – | – | –
6 | Cn1nc(C(F)F)c(C(=O)NC(C)(C)c2ccc(Cl)cc2Cl)c1F [Example 39] | 4.39 | 95 | 70 | 95 | 90 | – | – | – | –
7 | CC(NC(=S)c1c(C(F)F)nn(C)c1Cl)c1ccc(Cl)cc1Cl (centres unmarked) [Example 44] | 3.99 | – | 100 | 100 | 89 | – | – | – | –
8 | CON(C(=O)c1c(C(F)F)nn(C)c1F)C(C)c1ccc(Cl)cc1Cl (centres unmarked) [Example 45] | 3.65 | 100 | – | 100 | 95 | – | – | – | –
9 | CC(c1cc(Cl)ccc1Cl)N(C)C(=O)c1c(C(F)F)nn(C)c1F (centres unmarked) [Example 56] | 3.15 | 95 | 100 | 100 | 70 | – | – | – | –
10 | CCN(Cc1ccccc1C(C)C)C(=O)c1c(C(F)F)nn(C)c1F [Example 68] | 3.42 | 100 | 80 | 100 | – | 100 | – | 70 | 100
11 | CC(C)c1ccccc1CN(C)C(=O)c1c(C(F)F)nn(C)c1F [Example 72] | 3.11 | 98 | 95 | 100 | 78 | 90 | – | – | 100
12 | CC(C)c1ccccc1CNC(=O)c1c(C(F)F)nn(C)c1F [Example 74] | 3.02 | 95 | 95 | 100 | 80 | – | – | – | –
13 | CON(Cc1ccccc1C(C)C)C(=O)c1c(C(F)F)nn(C)c1F [Example 76] | 3.37 | 93 | 94 | – | 89 | – | – | – | –
14 | CC(C)c1ccccc1CNC(=O)c1c(C(F)F)nn(C)c1Cl [Example 79] | 3.19 | – | – | 95 | 94 | – | – | – | –
15 | Cn1nc(C(F)F)c(C(=O)N(Cc2c(Cl)cccc2C(F)(F)F)C2CCC2)c1F [Example 90] | 3.81 | 100 | 95 | 100 | – | 100 | – | 95 | 100
16 | Cn1nc(C(F)F)c(C(=O)N(Cc2ccccc2[Si](C)(C)C)C2CCC2)c1F [Example 98] | 4.61 | 96 | 70 | – | – | – | – | 95 | –
17 | CCN(Cc1ccccc1[Si](C)(C)C)C(=O)c1c(C(F)F)nn(C)c1F [Example 99] | 4.09 | 95 | 95 | 95 | – | – | – | 100 | –
18 | C=CCN(Cc1ccccc1[Si](C)(C)C)C(=O)c1c(C(F)F)nn(C)c1F [Example 100] | 4.27 | – | 80 | – | – | – | – | 80 | –
19 | C#CCN(Cc1ccccc1[Si](C)(C)C)C(=O)c1c(C(F)F)nn(C)c1F [Example 101] | 3.93 | – | 70 | 80 | – | – | – | 90 | –
20 | Cn1nc(C(F)F)c(C(=O)NCc2ccccc2SC(F)(F)F)c1Cl [Example 106] | – | – | – | 90 | – | – | 3.29 | 80 | –
21 | CC(c1cc(Cl)cc(Cl)c1)N(C)C(=O)c1c(C(F)F)nn(C)c1F (centres unmarked) [Example 117] | – | 95 | 100 | 100 | 70 | – | 3.46 | 70 | –
22 | CC(c1cc(Cl)cc(Cl)c1)N(C)C(=S)c1c(C(F)F)nn(C)c1F (centres unmarked) [Example 118] | – | 95 | 100 | 100 | 70 | – | 4.24 | – | –
23 | Cn1nc(C(F)F)c(C(=O)NC2(c3ccc(Cl)c(C(F)(F)F)c3)CC2)c1Cl [Example 126] | – | – | – | 95 | – | – | 3.41 | 78 | –
24 | CN(Cc1ncc(Cl)cc1Cl)C(=O)c1c(C(F)F)nn(C)c1F [Example 179] | – | – | 90 | 100 | 70 | – | 2.53 | – | –
25 | CN(Cc1ncc(Cl)cc1Cl)C(=O)c1c(C(F)F)nn(C)c1Cl [Example 180] | – | – | 80 | 100 | – | – | 2.73 | 80 | –
26 | CON(Cc1ncc(Cl)cc1Cl)C(=O)c1c(C(F)F)nn(C)c1F [Example 181] | – | – | 80 | 100 | 70 | – | 2.73 | 70 | –
27 | Cn1nc(C(F)F)c(C(=O)N(Cc2ncc(Cl)cc2Cl)C2CCCC2)c1Cl [Example 184] | – | – | – | – | – | – | 4.11 | 70 | –
28 | CC(c1ncc(Cl)cc1Cl)N(C)C(=O)c1c(C(F)F)nn(C)c1F (centres unmarked) [Example 185] | – | – | 100 | 95 | 95 | 100 | 2.92 | 90 | 100
29 | CC(c1ncc(Cl)cc1Cl)N(C(=O)c1c(C(F)F)nn(C)c1F)C1CCCC1 (centres unmarked) [Example 187] | – | – | – | 90 | 80 | – | 4.44 | – | –
